The target of the experiment is T1, IKBKB (IKKβ) (Homo sapiens, UniProt O14920).
T1 construct: purchased Life Technologies (assay performed by the vendor)
T1 sequence (O14920 1-756): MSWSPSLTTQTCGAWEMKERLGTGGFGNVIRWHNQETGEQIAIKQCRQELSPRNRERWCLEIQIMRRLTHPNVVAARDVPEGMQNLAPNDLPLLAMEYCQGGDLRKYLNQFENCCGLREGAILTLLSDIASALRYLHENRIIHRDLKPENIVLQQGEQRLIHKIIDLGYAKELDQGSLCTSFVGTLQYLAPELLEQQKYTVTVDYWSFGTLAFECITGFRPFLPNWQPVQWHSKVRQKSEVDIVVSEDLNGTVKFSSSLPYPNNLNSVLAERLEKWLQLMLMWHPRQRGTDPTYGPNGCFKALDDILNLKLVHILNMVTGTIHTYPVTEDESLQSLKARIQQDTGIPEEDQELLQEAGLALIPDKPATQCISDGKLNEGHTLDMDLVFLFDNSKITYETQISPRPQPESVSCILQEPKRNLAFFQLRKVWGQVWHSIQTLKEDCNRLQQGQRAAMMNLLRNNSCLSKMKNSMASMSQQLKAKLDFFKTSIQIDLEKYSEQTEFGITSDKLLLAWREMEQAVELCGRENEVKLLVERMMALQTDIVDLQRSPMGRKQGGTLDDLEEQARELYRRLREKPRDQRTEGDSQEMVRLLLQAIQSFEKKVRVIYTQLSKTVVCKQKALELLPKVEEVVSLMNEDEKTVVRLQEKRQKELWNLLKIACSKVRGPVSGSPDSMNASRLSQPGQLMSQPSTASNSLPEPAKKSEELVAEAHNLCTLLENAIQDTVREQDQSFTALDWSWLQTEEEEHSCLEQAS
The experiment is described as follows: Z'-LYTE IKKβ assay (Life Technologies). It is filed as biochemical. The protocol: IKKα and IKKβ inhibitory activity was determined using three different assays: a dissociation enhanced ligand fluorescent immunoassay (DELFIA) based on the protocol of HTScan™ IKKβ Kinase Assay (Cell Signaling Technology, USA); an Adapta IKKα assay (performed by Life Technologies); a Z′-LYTE™ IKKβ assay (performed by Life Technologies).
The reaction was performed in low volume NBS, black 384-well plates (Corning model 4514).
The test compounds were screened in 1% DMSO (final) in the well. For 10 point titrations, 3-fold serial dilutions were conducted from the starting concentration of 50 mM.
The 2× IKBKB (IKKβ)/Ser/Thr 05 mixture was prepared in 50 mM HEPES pH 7.5, 0.01% BRIJ-35, 10 mM MgCl2, 1 mM EGTA. The final 10 μL Kinase Reaction consisted of 0.62-4 ng IKBKB (IKKβ) and 2 μM Ser/Thr 05 in 50 mM HEPES pH 7.5, 0.01% BRIJ-35, 10 mM MgCl2, 1 mM EGTA.
5 μL of 2× Kinase reaction was incubated with 2.5 μL of ATP solution diluted to a 4× working concentration in Kinase Buffer (50 mM HEPES pH 7.5, 0.01% BRIJ-35, 10 mM MgCl2, 1 mM EGTA) in the presence of […] of 100× test compound in 100% DMSO and 2.4 μL of Kinase buffer.
The resulting kinase reaction was allowed to incubate for 1 hour at room temperature before 5 μL of a 1:64 dilution of Development Reagent B was added and the resulting Development Reaction was incubated for another hour at room temperature. Then the plate was read on a fluorescence plate reader and the data analysed.
A ratiometric method, which calculated the Emission Ratio of donor emission (i.e. coumarin) to acceptor emission (i.e. fluorescein) after excitation of the donor fluorophore at 400 nm, was used to quantitate reaction progress, as shown in the equation below.
`Nc1n[nH]c2ccc(-c3ccnc4[nH]c(CO)cc34)cc12` [Example 224] returned an IC50 of 0.028 µM.
`CC(C)(C)OCc1cc2c(-c3ccc4[nH]nc(N)c4c3)ccnc2[nH]1` [Example 227, 5-(2-(tert-Butoxymethyl)-1H-pyrrolo[2,3-b]pyridin-4-yl)-1H-indazol-3-amine] came in with a half-inhibitory concentration (IC50) of 0.388 µM.
In turn, `Nc1n[nH]c2ccc(-c3ccnc4[nH]c(C5CCOCC5)cc34)cc12` [Example 228, 5-(2-(tetrahydro-2H-pyran-4-yl)-1H-pyrrolo[2,3-b]pyridin-4-yl)-1H-indazol-3-amine] gave an IC50 of 0.032 µM. Compared with the last compound, the IC50 is about 12-fold lower.
Under `Nc1n[nH]c2ccc(-c3ccnc4[nH]c(C5CCCCO5)cc34)cc12` (stereo not drawn) [Example 229, 5-(2-(Tetrahydro-2H-pyran-2-yl)-1H-pyrrolo[2,3-b]pyridin-4-yl)-1H-indazol-3-amine] stands 0.225 µM; under `Nc1n[nH]c2ccc(-c3ccnc4[nH]c(CC5CCOCC5)cc34)cc12` [Example 230, 5-(2-((tetrahydro-2H-pyran-4-yl)methyl)-1H-pyrrolo[2,3-b]pyridin-4-yl)-1H-indazol-3-amine], 0.06 µM.
Compound `Nc1n[nH]c2ccc(-c3ccnc4[nH]c(C(=O)N5CCCC5)cc34)cc12` [Example 234, (4-(3-Amino-1H-indazol-5-yl)-1H-pyrrolo[2,3-b]pyridin-2-yl)(pyrrolidin-1-yl)methanone] had a half-maximal inhibitory concentration (IC50) of 0.79 µM.
In turn, `Nc1n[nH]c2ccc(-c3ccnc4[nH]c(C(=O)NC5CCCCC5)cc34)cc12` [Example 236, 4-(3-Amino-1H-indazol-5-yl)-N-cyclohexyl-1H-pyrrolo[2,3-b]pyridine-2-carboxamide] showed a 50% inhibitory concentration (IC50) of 0.02 µM.
Turning to `CN1CCN(C(=O)c2cc3c(-c4ccc5[nH]nc(N)c5c4)ccnc3[nH]2)CC1` [Example 243, (4-(3-Amino-1H-indazol-5-yl)-1H-pyrrolo[2,3-b]pyridin-2-yl)(4-methylpiperazin-1-yl)methanone], half-maximal inhibition (IC50) required 0.63 µM.
Under `CC(C)(C)NCc1cc2c(-c3ccc4[nH]nc(N)c4c3)ccnc2[nH]1` [Example 248, 5-(2-((tert-Butylamino)methyl)-1H-pyrrolo[2,3-b]pyridine-4-yl)-1H-indazol-3-amine] stands 1.43 µM; under `Nc1n[nH]c2ccc(-c3ccnc4[nH]c(C5CCCCN5)cc34)cc12` (stereo not drawn) [Example 250, 5-(2-(Piperidin-2-yl)-1H-pyrrolo[2,3-b]pyridine-4-yl)-1H-indazol-3-amine], 0.81 µM.
Turning to `Nc1n[nH]c2ccc(-c3ccnc4[nH]c(CNC5CCCCC5)cc34)cc12` [Example 251, 5-(2-((cyclohexylamino)methyl)-1H-pyrrolo[2,3-b]339yridine-4-yl)-1H-indazol-3-amine], half-maximal inhibition (IC50) required 0.405 µM.
The compound `CN(C)CCCNCc1cc2c(-c3ccc4[nH]nc(N)c4c3)ccnc2[nH]1` [Example 258, N^1-((4-(3-amino-1H-indazol-5-yl)-1H-pyrrolo[2,3-b]pyridin-2-yl)methyl)-N^3,N^3-dimethylpropane-1,3-diamine] returned an IC50 of 0.245 µM. This IC50 is about 1.7-fold lower than that of the compound before.
With `CC(C)N(C)Cc1cc2c(-c3ccc4[nH]nc(N)c4c3)ccnc2[nH]1` [Example 259, 5-(2-((Isopropyl(methyl)amino)methyl)-1H-pyrrolo[2,3-b]pyridine-4-yl)-1H-indazol-3-amine] the figure was 0.79 µM.
Turning to `Nc1n[nH]c2ccc(-c3ccnc4[nH]c(CN5CCCCC5)cc34)cc12` [Example 260, 5-(2-(Piperidin-1-ylmethyl)-1H-pyrrolo[2,3-b]pyridine-4-yl)-1H-indazol-3-amine], the IC50 is 0.454 µM.
Regarding `Nc1n[nH]c2ccc(-c3ccnc4[nH]c(CN5CCC(F)(F)CC5)cc34)cc12` [Example 261, 5-(2-((4,4-Difluoropiperidin-1-yl)methyl)-1H-pyrrolo[2,3-b]pyridine-4-yl)-1H-indazol-3-amine], the IC50 was found to be 0.286 µM.
Under `Nc1n[nH]c2ccc(-c3ccnc4[nH]c(CN5CCOCC5)cc34)cc12` [Example 262, 5-(2-(Morpholinomethyl)-1H-pyrrolo[2,3-b]pyridine-4-yl)-1H-indazol-3-amine] stands 0.269 µM.
In turn, `CN1CCN(Cc2cc3c(-c4ccc5[nH]nc(N)c5c4)ccnc3[nH]2)CC1` [Example 263, 5-(2-((4-Methylpiperazin-1-yl)methyl)-1H-pyrrolo[2,3-b]pyridine-4-yl)-1H-indazol-3-amine] yielded an IC50 of 0.3 µM.
With `Nc1n[nH]c2ccc(-c3ccnc4[nH]c(CN5CCCCCC5)cc34)cc12` [Example 265, 5-(2-(Azepan-1-ylmethyl)-1H-pyrrolo[2,3-b]pyridine-4-yl)-1H-indazol-3-amine] the figure was 0.35 µM; with `CN1CCCN(Cc2cc3c(-c4ccc5[nH]nc(N)c5c4)ccnc3[nH]2)CC1` [Example 266, 5-(2-((4-Methyl-1,4-diazepan-1-yl)methyl)-1H-pyrrolo[2,3-b]pyridin-4-yl)-1H-indazol-3-amine], 0.38 µM.
`Nc1n[nH]c2ccc(-c3ccnc4[nH]c(CCN5CCCCC5)cc34)cc12` [Example 267, 5-(2-(2-(Piperidin-1-yl)ethyl)-1H-pyrrolo[2,3-b]pyridine-4-yl)-1H-indazol-3-amine] yielded an IC50 of 0.235 µM.
For the compound `Nc1n[nH]c2ccc(-c3ccnc4[nH]c(CCN5CCOCC5)cc34)cc12` [Example 268, 5-(2-(2-Morpholinoethyl)-1H-pyrrolo[2,3-b]pyridin-4-yl)-1H-indazol-3-amine], the IC50 was 0.138 µM. This IC50 is about 1.7-fold lower than that of the compound before.
In turn, `Nc1n[nH]c2ccc(-c3ccnc4[nH]c(CCCN5CCCCC5)cc34)cc12` [Example 269, 5-(2-(3-(Piperidin-1-yl)propyl)-1H-pyrrolo[2,3-b]pyridin-4-yl)-1H-indazol-3-amine] returned a half-maximal inhibitory concentration (IC50) of 0.046 µM.
As to `Nc1n[nH]c2ccc(-c3ccnc4[nH]c(CCCN5CCOCC5)cc34)cc12` [Example 271, 5-(2-(3-Morpholinopropyl)-1H-pyrrolo[2,3-b]pyridin-4-yl)-1H-indazlo-3-amine], the IC50 was determined as 0.111 µM.
`Nc1n[nH]c2ccc(-c3ccnc4[nH]c(CC5CCNCC5)cc34)cc12` [Example 272, 5-(2-(Piperidin-4-ylmethyl)-1H-pyrrolo[2,3-b]pyridin-4-yl)-1H-indazol-3-amine] registered a concentration for half-maximal inhibition (IC50) of 0.053 µM.

Broadly, the IC50 is the concentration needed to halve the response being measured.

For the origin of these results see US20250304576A1 (Cancer Research Technology Limited, priority 2022, published 2025).
